We go through one compound from patent publication US9657092B2, “S100A4 antibodies and therapeutic uses thereof” (LYKERA BIOMED SA, priority 2010, dated 2017).

For this experiment, the system named is MiaPACA-2 cells. The experiment is described as follows: Cytotoxic effect measured by hexosaminidase activity. The class given is cell-based. The settings on record: Homo sapiens, MIA PaCa-2; gemcitabine alone, 72 h; read-out: EC50 cell viability. The method, then: Briefly, MiaPACA-2 cells were plated onto 96-well cell culture plates (5×10^3 cells/well) in 50 μl of DMEM medium. […] After removing the culture media cells were washed once with PBS. Sixty microliters of substrate solution (p-nitrophenol-N-acetyl-beta-D-glucosamide 7.5 mM, sodium citrate 0.1 M, 0.25% Triton X-100, pH 5.0) was added to each well and plates were incubated at 37° C. for 2 hours; after this incubation time, a bright yellow appears and plates were developed by adding 90 μl of developer solution (Glycine 50 mM, EDTA 5 mM, pH 10.4), and the absorbance at 450 nm was measured by using a multi-well scanning spectrophotometer. Data analysis was done normalizing the results with the negative control (untreated cells) which were considered as 100% of viability.
Curves were adjusted using a sigmoidal dose-response (variable slope) equation, and EC50 values were obtained from the equation: Y=Bottom+(Top−Bottom)/(1+10^((Log EC50−X)*HillSlope)) where X is the logarithm of concentration and Y is the response. Y starts at Bottom and goes to Top with a sigmoid shape.

In the case of `Nc1ccn([C@@H]2O[C@H](CO)[C@@H](O)C2(F)F)c(=O)n1` [gemcitabine], the EC50 is 8.36 nM.
